The results in this text go back to article PMC3906526 (Archives of Pharmacal Research, 2013).

SMILES strings stand for the structures.

Sequence of c-Kit (P10721 544-976): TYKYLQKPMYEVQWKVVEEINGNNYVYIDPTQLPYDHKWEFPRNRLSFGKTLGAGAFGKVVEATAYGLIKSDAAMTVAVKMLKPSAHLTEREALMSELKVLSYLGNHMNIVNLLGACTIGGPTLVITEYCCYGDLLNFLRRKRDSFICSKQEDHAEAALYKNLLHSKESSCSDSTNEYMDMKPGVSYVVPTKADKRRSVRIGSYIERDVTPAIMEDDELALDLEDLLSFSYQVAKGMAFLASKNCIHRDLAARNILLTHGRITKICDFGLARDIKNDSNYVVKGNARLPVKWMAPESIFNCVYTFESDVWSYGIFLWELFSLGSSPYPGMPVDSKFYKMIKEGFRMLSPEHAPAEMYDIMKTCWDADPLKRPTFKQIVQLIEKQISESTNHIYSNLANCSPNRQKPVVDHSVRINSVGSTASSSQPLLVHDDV

This assay has as its target c-Kit (Homo sapiens, UniProt P10721). The assay is described as follows: AlphaBead. Type of assay: biochemical.
In turn, `COc1ccc(-c2cc(=O)c3c(O)cc(O)cc3o2)cc1` [Y1, acacetin] returned a concentration for half-maximal inhibition (IC50) of 13.3 µM.

The compound `O=c1cc(-c2ccc(O)cc2)oc2cc(O)cc(O)c12` [Y3, apigenin] yielded a concentration for half-maximal inhibition (IC50) of 4.7 µM.

For `O=c1cc(-c2ccc(O)c(O)c2)oc2cc(O)cc(O)c12` [Y4, luteolin], the IC50 turned out to be 1 µM. Against the preceding compound, the IC50 is about 4.7-fold lower.
